This note sets out measurements from patent US7235570B2, “1,4-dihydropyridine and pyridine compounds as calcium channel blockers” (Vittal Mallya Scientific Research, priority 2002, dated 2007).

This test addresses T1, T-type calcium channels (α1G) (Homo sapiens, UniProt O43497).
T1 construct: expressed in transfected cells
The test can be described thus: T-type calcium channel block, whole-cell voltage clamp in HEK293 cells. It counts as cell-based. The note with it: α1G stably expressed in HEK293 cells, step to −30 mV from holding potential −110 mV. The procedure:
T-type calcium channels (α1G) were stably expressed in HEK293 cells and maintained at 37° C. in DMEM. Cells were released from dishes using trypsin and EGTA or Accutase and studied within 4 hours of isolation. Individual cells were placed on the stage of an inverted microscope and patched with pipettes pulled from aluminasilicate glass capillary tubes, which had resistances of 0.8-1.5 Mohm. Currents were recorded using an Axopatch 200 (Axon Instruments, Inc.) and pClamp data acquisition software (8.1). The pipette solution contained (in mM): KCl 130, EGTA 11, HEPES 10, MGATP 5, pH ═7.4. The bath solution contained (in mM): NaCl 140, CaCl2 1, HEPES 10, pH═7.4. Test compounds were diluted into bath solution to the desired concentration (100 nM-10 μM) from a stock solutions (3 or 10 mM in DMSO). Current measurements were made at 20-23° C. Cells were held at −110 mV in order to maximize occupancy in the closed state and depolarized for 100 ms to various potentials. Currents were capacity corrected using 16-64 subthreshold responses (voltage steps of 10 or 20 mV) and leak subtracted, based on linear interpolation between the current at the holding potential and 0 mV. Cells were moved from a control chamber to a chamber with test compound and the effect of the drug was assessed using a voltage clamp protocol that stepped to −30 mV for 100 ms from a holding potential of −110 mV once every 5 s. After each 10-13 minutes, the train protocol was interrupted and a full current voltage relationship obtained. In general for each compound, four cells were studied for a minimum of 13 minutes, two in drug at 500 nM and two at 1 μM. In some cases other concentrations were also studied. Data were analyzed using Matlab (Mathworks, Natick, Mass.). Drug efficacy was estimated using the relationship: Blocked Fraction=[Drug]/(IC50+[Drug])

T1 sequence (O43497 whole entry): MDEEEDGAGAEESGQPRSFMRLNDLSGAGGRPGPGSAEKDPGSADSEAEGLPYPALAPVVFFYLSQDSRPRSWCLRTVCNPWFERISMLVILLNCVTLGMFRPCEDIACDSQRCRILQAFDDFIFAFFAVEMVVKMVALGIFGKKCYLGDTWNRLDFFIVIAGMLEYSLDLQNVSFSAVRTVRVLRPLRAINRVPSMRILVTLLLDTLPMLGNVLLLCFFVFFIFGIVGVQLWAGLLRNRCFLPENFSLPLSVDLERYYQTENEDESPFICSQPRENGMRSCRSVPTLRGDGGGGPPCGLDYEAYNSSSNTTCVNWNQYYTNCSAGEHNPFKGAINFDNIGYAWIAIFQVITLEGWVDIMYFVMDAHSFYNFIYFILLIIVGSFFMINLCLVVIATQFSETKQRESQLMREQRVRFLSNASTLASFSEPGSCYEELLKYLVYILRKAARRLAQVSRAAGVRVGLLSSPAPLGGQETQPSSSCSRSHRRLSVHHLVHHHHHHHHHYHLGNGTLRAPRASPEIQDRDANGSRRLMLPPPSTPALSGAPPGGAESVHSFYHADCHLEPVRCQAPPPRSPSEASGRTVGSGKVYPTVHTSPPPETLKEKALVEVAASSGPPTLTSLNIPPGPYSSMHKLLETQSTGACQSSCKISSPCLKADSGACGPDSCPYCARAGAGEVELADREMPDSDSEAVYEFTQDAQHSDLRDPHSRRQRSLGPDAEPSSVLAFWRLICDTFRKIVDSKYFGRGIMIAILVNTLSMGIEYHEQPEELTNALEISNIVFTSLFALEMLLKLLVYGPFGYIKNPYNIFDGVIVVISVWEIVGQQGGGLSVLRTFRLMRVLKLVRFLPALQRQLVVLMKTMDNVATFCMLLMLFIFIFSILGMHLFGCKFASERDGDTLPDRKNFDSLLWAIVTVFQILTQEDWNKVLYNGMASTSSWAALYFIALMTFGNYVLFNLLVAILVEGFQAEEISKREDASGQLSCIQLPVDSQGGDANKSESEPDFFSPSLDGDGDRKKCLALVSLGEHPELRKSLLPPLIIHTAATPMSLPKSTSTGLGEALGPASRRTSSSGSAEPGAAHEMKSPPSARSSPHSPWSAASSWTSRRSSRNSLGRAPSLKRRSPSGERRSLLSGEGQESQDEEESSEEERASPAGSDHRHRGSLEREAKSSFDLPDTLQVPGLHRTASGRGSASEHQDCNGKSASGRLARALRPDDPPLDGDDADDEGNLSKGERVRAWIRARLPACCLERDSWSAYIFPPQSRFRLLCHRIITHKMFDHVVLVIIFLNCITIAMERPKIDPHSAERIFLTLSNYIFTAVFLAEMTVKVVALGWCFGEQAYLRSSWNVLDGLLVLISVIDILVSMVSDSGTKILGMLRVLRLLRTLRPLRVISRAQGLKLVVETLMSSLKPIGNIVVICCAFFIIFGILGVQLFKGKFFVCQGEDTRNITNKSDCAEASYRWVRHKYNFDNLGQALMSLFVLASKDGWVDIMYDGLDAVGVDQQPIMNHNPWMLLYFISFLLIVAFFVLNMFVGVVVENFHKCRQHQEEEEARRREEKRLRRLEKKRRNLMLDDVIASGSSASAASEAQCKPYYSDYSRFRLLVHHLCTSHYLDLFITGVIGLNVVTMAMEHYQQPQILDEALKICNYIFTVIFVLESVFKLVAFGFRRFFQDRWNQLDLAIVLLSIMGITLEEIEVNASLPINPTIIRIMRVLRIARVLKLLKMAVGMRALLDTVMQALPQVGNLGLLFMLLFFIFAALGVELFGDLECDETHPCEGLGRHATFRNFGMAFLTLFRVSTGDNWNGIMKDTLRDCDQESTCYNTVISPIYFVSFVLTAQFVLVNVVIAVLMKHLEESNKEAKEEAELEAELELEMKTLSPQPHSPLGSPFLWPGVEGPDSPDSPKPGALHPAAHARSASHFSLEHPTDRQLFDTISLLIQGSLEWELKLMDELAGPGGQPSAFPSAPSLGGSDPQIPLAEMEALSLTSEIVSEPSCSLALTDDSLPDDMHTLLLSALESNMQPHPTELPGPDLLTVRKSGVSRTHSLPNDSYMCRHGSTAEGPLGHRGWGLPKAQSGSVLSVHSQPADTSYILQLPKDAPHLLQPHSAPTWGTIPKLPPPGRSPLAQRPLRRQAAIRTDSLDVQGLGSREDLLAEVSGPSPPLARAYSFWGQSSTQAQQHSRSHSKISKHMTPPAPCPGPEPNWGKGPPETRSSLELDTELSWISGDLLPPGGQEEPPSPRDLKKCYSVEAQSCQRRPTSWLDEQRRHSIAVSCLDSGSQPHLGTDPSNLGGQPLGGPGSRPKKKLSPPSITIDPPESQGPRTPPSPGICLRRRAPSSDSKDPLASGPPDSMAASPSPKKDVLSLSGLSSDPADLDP

Turning to `CCCCCCCCCCCCCCCc1cccc(OC(C)C)c1C1C(C(=O)OC)=C(C)NC(C)=C1C(=O)OC` [DHP-5, dimethyl 1,4-dihydro-4-(2′-isopropoxy-6′-pentadecylphenyl)-2,6-dimethyl-3,5-pyridine dicarboxylate], the “% of calcium channels blocked” value (1 μM of comp'd) came to 80%.
`CCCCCCCCCCCCCCCc1cccc(OCC)c1C1C(C(=O)OCC)=C(C)NC(C)=C1C(=O)OC(C)C` (stereo not shown) [DHP-12, ethyl isopropyl 1,4-dihydro-4-(2′-ethoxy-6′-pentadecylphenyl)-2,6-dimethyl-3,5-pyridine dicarboxylate]: the “% of calcium channels blocked” value reads like this: (500 nM of comp'd) 5%; (1 μM of comp'd) 77%.
For `COCC(=O)O[C@]1(CCN(C)CCCc2nc3ccccc3[nH]2)CCc2cc(F)ccc2[C@@H]1C(C)C` [Mibefradil] the same measures were 75% and 90%.
In the same order, the values of `COC(=O)C1=C(C)NC(C)=C(C(=O)OC)C1c1ccccc1[N+](=O)[O-]` [Nifedipine] are 0% and 15%.
